# Data as given in patent US8507533B2, “Glucagon receptor modulators” (Pfizer Inc., priority 2011, dated 2013).
# Target: human glucagon receptor (Homo sapiens (Human), UniProt P47871)
# Assay: Glucagon cAMP Assay (Cisbio cAMP detection)
# Assay type: cell-based
# Details: CHOK1 cells stably transfected with the human glucagon receptor; block of glucagon induced cAMP production; Kb by modified Cheng-Prusoff equation
# Method: The Cisbio cAMP detection assay is used to determine the ability of punitive glucagon antagonist to block glucagon induced cAMP production. Potential glucagon antagonists are re-suspended and diluted in 100% DMSO. Prior to use in the Glucagon cAMP assay 100×DMSO compound stocks are diluted 20× with DMEM-F12 media (Invitrogen) containing either 0.1% or 4% BSA. […] 2 μls of 5% DMSO or known glucagon antagonist are added to each plate to define the assay window. CHOK1 cells stably transfected with the human glucagon receptor are removed from culture flasks with cell dissociation buffer. Cell pellets are re-suspended, at a concentration of 8.3e^5 cells/ml in DMEM-F12 with or without 4% BSA and 200 uM IBMX. 6 μls of cell suspensions are added to the assay plates. Plates are incubated for 20 min at room temperature prior to the addition of a 100 μM challenge dose of glucagon. On a separate plate glucagon dose response curves are run to determine the EC50 of glucagon. After a 30 min room temperature incubation the reaction is terminated by the addition of lysis buffer containing the cAMP detection reagents. Plates are incubated for an additional 60 min at room temperature prior to being read on the Perkin Elmer fluorescent plate reader. Raw is converted to nM of cAMP produced based on a cAMP standard curve. Converted data is then analyzed using the Pfizer data analysis program. IC50 values are determined from the generated sigmoidal dose response curves. Kb values are calculated using a modified Cheng-Prusoff equation. N is the number of times the compound was assayed.
# human glucagon receptor, sequence (P47871 26-477): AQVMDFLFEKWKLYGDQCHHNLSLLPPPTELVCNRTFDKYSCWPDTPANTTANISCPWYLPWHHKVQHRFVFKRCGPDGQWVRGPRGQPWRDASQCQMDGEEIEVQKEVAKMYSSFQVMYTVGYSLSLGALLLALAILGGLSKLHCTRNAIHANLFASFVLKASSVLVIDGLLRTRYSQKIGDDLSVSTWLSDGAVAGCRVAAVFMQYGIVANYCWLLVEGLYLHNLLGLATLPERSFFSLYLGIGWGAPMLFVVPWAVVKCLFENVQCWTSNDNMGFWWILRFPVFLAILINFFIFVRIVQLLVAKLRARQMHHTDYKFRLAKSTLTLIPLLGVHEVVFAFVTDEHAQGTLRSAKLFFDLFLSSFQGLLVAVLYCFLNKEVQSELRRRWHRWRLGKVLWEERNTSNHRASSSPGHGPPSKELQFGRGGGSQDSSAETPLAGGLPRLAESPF
row,Structure (SMILES),Kb [nM]
1,"CCCC(Oc1ccc(-n2cc(C(F)(F)F)cn2)cc1)c1ccc(C(=O)NCCC(=O)O)cn1 (racemic) [Example 3, (+/−)-3-(6-(1-(4-(4-(trifluoromethyl)-1H-pyrazol-1-yl)phenoxy)butyl)nicotinamido)propanoic acid]",1820
2,"CCCC(Oc1ccc(-c2c(C)nn(C)c2C)cc1)c1ccc(C(=O)NCCC(=O)O)cc1 (racemic) [Example 58, (+/−)-3-(4-(1-(4-(1,3,5-trimethyl-1H-pyrazol-4-yl)phenoxy)butyl)benzamido)propanoic acid]",7300
3,"CCCC(Nc1ccc(-n2cc(-c3ccccc3)cn2)nc1)c1ccc(C(=O)NCCC(=O)O)cc1 (racemic) [Example 62, (+/−)-3-(4-(1-(6-(4-phenyl-1H-pyrazol-1-yl)pyridine-3-ylamino)butyl)benzamido)propanoic acid]",32.2
4,"CCCC(Oc1ccc(-c2ccnn2C)cc1)c1ccc(C(=O)NCCC(=O)O)cc1 (racemic) [Example 57, (+/−)-3-(4-(1-(4-(1-methyl-1H-pyrazol-5-yl)phenoxy)butyl)benzamido)propanoic acid]",6100
5,"O=C(O)CCNC(=O)c1ccc(C(Nc2ccc(-n3cc(C(F)(F)F)cn3)nc2)C2CCCC2)cc1 (single isomer, unassigned) [Example 95, 3-(4-(cyclopentyl(6-(4-(trifluoromethyl)-1H-pyrazol-1-yl)pyridine-3-ylamino)methyl)benzamido)propanoic acid]",32.8
6,"CCCC(Oc1ccc(-n2cc(C)c(C(F)(F)F)n2)cc1)c1ccc(C(=O)NCCC(=O)O)cc1 (racemic) [Example 72, (+/−)-3-(4-(1-(4-(4-methyl-3-(trifluoromethyl)-1H-pyrazol-1-yl)phenoxy)butyl)benzamido)propanoic acid]",2300
7,"O=C(O)CCNC(=O)c1ccc(C(Nc2ccc(-n3cnc(C(F)(F)F)c3)nc2)C2CCCC2)cc1 (racemic) [Example 8, (+/−)-3-(4-(cyclopentyl(6-(4-(trifluoromethyl)-1H-imidazol-1-yl)pyridine-3-ylamino)methyl)benzamido)propanoic acid]",155
8,CCCC(Oc1ccc(-n2cc(-c3ccccc3)cn2)nc1)c1ccc(C(=O)NCCC(=O)O)cc1 (centres unmarked) [Example 133],75
9,"CCCC(Oc1ccc(-n2cnc(C(F)(F)F)c2)nc1)c1ccc(C(=O)NCCC(=O)O)cc1 (racemic) [Example 87, (+/−)-3-(4-(1-(6-(4-(trifluoromethyl)-1H-imidazol-1-yl)pyridine-3-yloxy)butyl)benzamido)propanoic acid]",9390

# Further lines, results first:
row,Kb [nM],Structure (SMILES)
1,1560,"CCCC(Oc1ccc(-n2nc(C)cc2OC)cc1)c1ccc(C(=O)NCCC(=O)O)cc1 (racemic) [Example 33, (+/−)-3-(4-(1-(4-(5-methoxy-3-methyl-1H-pyrazol-1-yl)phenoxy)butyl)benzamido)propanoic acid]"
2,494,"CC(C)CC(Nc1ccc(C(=O)NCCC(=O)O)cn1)c1ccc(-n2cc(C(F)(F)F)cn2)cc1 (racemic) [Example 64, (+/−)-3-(6-(3-methyl-1-(4-(4-(trifluoromethyl)-1H-pyrazol-1-yl)phenyl)butylamino)nicotinamido)propanoic acid]"
3,2130,"CCCc1ccn(-c2ccc(OC(CCC)c3ccc(C(=O)NCCC(=O)O)cn3)cc2)n1 (racemic) [Example 38, (+/−)-3-(6-(1-(4-(3-propyl-1H-pyrazol-1-yl)phenoxy)butyl)nicotinamido)propanoic acid]"
4,1120,"CCCC(Oc1ccc(-n2nc(CC)cc2CC)cc1)c1ccc(C(=O)NCCC(=O)O)cc1 (racemic) [Example 25, (+/−)-3-(4-(1-(4-(3,5-diethyl-1H-pyrazol-1-yl)phenoxy)butyl)benzamido)propanoic acid]"
5,1360,"CCCC(Oc1ccc(-n2ccc(C)n2)cc1)c1ccc(C(=O)NCCC(=O)O)cc1 (racemic) [Example 29, (+/−)-3-(4-(1-(4-(3-methyl-1H-pyrazol-1-yl)phenoxy)butyl)benzamido)propanoic acid]"
